Consider 5 compounds from ChEMBL document CHEMBL1139443, “Antitumor agents. Part 230: C4'-esters of GL-331 as cytotoxic agents and DNA topoisomerase II inhibitors” (Bioorg Med Chem Lett, 2004).

Series [1] in a line: Lethal dose against KB cells when treated for 30 min. The series is classed as toxicity, cell-based. As to conditions: human, read-out: LD50.
Series [2] relates to KB. The series is described as follows: Compound was evaluated for cytotoxicity against KB cells at 10 uM concentration. The series is classed as functional. The settings on record: Homo sapiens.
Series [3] relates to KB. The series is described as follows: Compound was evaluated for cytotoxicity against KB-7d cells at 10 uM concentration; NMD = not markedly different from control. The series is classed as functional, cell-based. The settings on record: Homo sapiens.
For series [4], the system named is KB. The series is described as follows: Effective dose required for inhibition of KB-7d cell replication after 3 days of continuous treatment. Type of series: functional. The settings on record: Homo sapiens, 72 h, read-out: ED50 (the source's name).
The subject of series [5] is KB. The series is described as follows: Lethal dose against KB-7d cells when treated for 30 min; NMD = not markedly different from control. Type of series: toxicity, cell-based. As to conditions: human, 0.5 h.
Series [6] can be described thus: Lethal dose against KB-7d cells when treated for 30 min. Type of series: toxicity, cell-based. The settings on record: human, read-out: LD50.
In series [7] the test system is KB. The series is described as follows: Compound was evaluated for cytotoxicity against KB-7d cells at 10 uM concentration. Type of series: functional. As to conditions: Homo sapiens.

Molecules are shown by their SMILES.

On to `COc1cc([C@@H]2c3cc4c(cc3[C@@H](O[C@@H]3O[C@@H]5CO[C@@H](C)O[C@H]5[C@H](O)[C@H]3O)[C@H]3COC(=O)[C@H]23)OCO4)cc(OC)c1O` [ETOPOSIDE], for which the CC50 at 0.5 h in series [1] is 50 µM. The compound also returned a cytotoxicity at 10 µM in the series with KB [2] of 52%. Besides, the Cytotoxicity entry in the series with KB [3] is “Not Markedly Different”. Besides, the EC50 in the series with KB [4] was found to be 11 µM. Further, the LD50 entry in the series with KB [5] is reported as “Not Markedly Different”.

`COc1cc([C@@H]2c3cc4c(cc3[C@@H](Nc3ccc([N+](=O)[O-])cc3)[C@H]3COC(=O)[C@H]23)OCO4)cc(OC)c1OC(=O)CCl`: the CC50 at 0.5 h in series [1] and in series [6] was more than 10 µM in each case. Moreover, the cytotoxicity at 10 µM in the series with KB [2] was 43%; with KB [7], 46%. The EC50 with KB [4] worked out at 2.3 µM.

On to `COc1cc([C@@H]2c3cc4c(cc3[C@@H](Nc3ccc([N+](=O)[O-])cc3)[C@H]3COC(=O)[C@H]23)OCO4)cc(OC)c1OC(C)=O`, for which the values for the CC50 at 0.5 h in series [1] and in series [6] were more than 20 µM and less than 10 µM, respectively. For the same compound, the cytotoxicity at 10 µM in the series on KB [2] was determined as 28%; with KB [7], 60%. In addition, in the series with KB [4], the EC50 was found to be 2.9 µM.

In the case of `COc1cc([C@@H]2c3cc4c(cc3[C@@H](Nc3ccc([N+](=O)[O-])cc3)[C@H]3COC(=O)[C@H]23)OCO4)cc(OC)c1O`, the CC50 at 0.5 h in series [1] and in series [6] was less than 10 µM each time. The cytotoxicity at 10 µM with KB [2] was 66%; in the series with KB [7] it was 94%. Also, the EC50 with KB [4] is 1.5 µM.

For `COc1cc([C@@H]2c3cc4c(cc3[C@@H](Nc3ccc([N+](=O)[O-])cc3)[C@H]3COC(=O)[C@H]23)OCO4)cc(OC)c1OC(=O)C(F)(F)F`, the CC50 at 0.5 h in series [1] and in series [6] was less than 10 µM in each case. Moreover, the cytotoxicity at 10 µM in the series with KB [2] is 62%; in the series on KB [7], 90%. For the same compound, the EC50 in the series on KB [4] amounted to 1.5 µM.
